Source: patent US12268683B2, “Compounds and methods for synergistic activation of M channels” (THE REGENTS OF THE UNIVERSITY OF CALIFORNIA, priority 2018, dated 2025)
“Also recorded” adds a separate entry of the source.

Assays:
[1] = target: KCNQ2-W236L/KCNQ3-W265L (Homo sapiens, UniProt O43525+O43526, W236L/W265L); assay: TEVC of double-mutant WL/WL KCNQ2/3 channels; format: cell-based
Source text: (§1) cRNA transcripts encoding human KCNA1, KCNQ1, KCNQ2, KCNQ3, KCNQ4, or KCNQ5 were generated by in vitro transcription using the T7 polymerase message machine kit (Thermo Fisher Scientific), after vector linearization, from cDNA sub-cloned into plasmids incorporating X. laevis β-globin 5′ and 3′ UTRs flanking the coding region to enhance translation and cRNA stability. cRNA was quantified by spectrophotometry. Mutant cDNAs were generated by site-directed mutagenesis using a QuikChange kit according to manufacturer's protocol (Stratagene, San Diego, Calif.) and corresponding cRNAs prepared as above. Defolliculated stage V and VI X. laevis oocytes (Ecocyte Bioscience, Austin, Tex.) were injected with Kv channel a subunit cRNAs (10 ng total per oocyte). Oocytes were incubated at 16° C. in Barth's saline solution (Ecocyte) containing penicillin and streptomycin, with daily washing, for 3-5 days prior to two-electrode voltage-clamp (TEVC) recording.
TEVC recording was performed at room temperature with an OC-725C amplifier (Warner Instruments, Hamden, Conn.) and pClamp10.2 software (Molecular Devices, Sunnyvale, Calif.) 3-5 days after cRNA injection as described in the section above. Oocytes were placed in a small-volume oocyte bath (Warner) and viewed with a dissection microscope. Chemicals were sourced from Sigma. Bath solution was (in mM): 96 NaCl, 4 KCl, 1 MgCl2, 1 CaCl2. 10 HEPES (pH 7.6). […] Currents were recorded in response to pulses between −80 and +40 mV at 20 mV intervals, or a single pulse to +40 mV, from a holding potential of −80 mV, to yield current-voltage relationships, current magnitude, and for quantifying activation rate. […]
cRNA transcripts encoding human KCNQ2, KCNQ3, KCNQ4, KCNQ5 (Kv7.2-Kv7.5) were generated by in vitro transcription using the T7 polymerase mMessage mMachine kit (Thermo Fisher Scientific), after vector linearization, from cDNA sub-cloned into plasmids incorporating Xenopus laevis β-globin 5′ and 3′ UTRs flanking the coding region to enhance translation and cRNA stability. cRNA was quantified by spectrophotometry. […]

[2] = target: T1, KCNQ2/3 (Homo sapiens, UniProt O43525+O43526); assay: TEVC of heteromeric KCNQ2/3 channels expressed in Xenopus laevis oocytes; format: cell-based; conditions: for effect on voltage dependence of KCNQ2/3 activation, screen of M. oppositifolius leaf compounds: 100 μM, MTX and palmitic acid 30 μM
Source text: as §1
TEVC recording was performed at room temperature with an OC-725C amplifier (Warner Instruments, Hamden, Conn.) and pClamp10.2 software (Molecular Devices, Sunnyvale, Calif.) 3-5 days after cRNA injection as described in the section above. Oocytes were placed in a small-volume oocyte bath (Warner) and viewed with a dissection microscope. Chemicals were sourced from Sigma. Bath solution was (in mM): 96 NaCl, 4 KCl, 1 MgCl2, 1 CaCl2. 10 HEPES (pH 7.6). […] MTX (DMSO), sorbic acid (ethanol), and glutaconic acid (molecular grade H2O) were stored at −20° C. as 1 M stocks. Oleamide was stored as a 1 mM stock in ethanol at 4° C. Palmitic acid was conjugated with bovine serum albumin as a 1 mM stock and stored at −20° C. All compounds were diluted to working concentrations each experimental day. All compounds were introduced to the recording bath via gravity perfusion at a constant flow of 1 ml/min for 3 min prior to recording. Pipettes were of 1-2 MΩ resistance when filled with 3 M KCl. Currents were recorded in response to pulses between −80 and +40 mV at 20 mV intervals, or a single pulse to +40 mV, from a holding potential of −80 mV, to yield current-voltage relationships, current magnitude, and for quantifying activation rate. TEVC data analysis was performed with Clampfit10.2 (Molecular Devices) and Graphpad Prism software (GraphPad, San Diego, Calif., USA); values are stated as mean±SEM. Normalized tail currents were plotted versus prepulse voltage and fitted with a single Boltzmann function: […]
cRNA transcripts encoding human KCNQ2, KCNQ3, KCNQ4, KCNQ5 (Kv7.2-Kv7.5) were generated by in vitro transcription using the T7 polymerase mMessage mMachine kit (Thermo Fisher Scientific), after vector linearization, from cDNA sub-cloned into plasmids incorporating Xenopus laevis β-globin 5′ and 3′ UTRs flanking the coding region to enhance translation and cRNA stability. cRNA was quantified by spectrophotometry. Mutant KCNQ2 and KCNQ3 cDNAs were generated with site-directed mutagenesis using a QuikChange kit according to the manufacturer's protocol (Stratagene, San Diego, Calif.) and corresponding cRNAs prepared as above.

[3] = target: T1, KCNQ2/3; conditions: cited from earlier work
[4] = target: KCNQ4 (Homo sapiens, UniProt P56696); assay: TEVC of homomeric KCNQ4 expressed in Xenopus oocytes; format: cell-based
Source text: as §1
(§2) TEVC recording was performed at room temperature with an OC-725C amplifier (Warner Instruments, Hamden, Conn.) and pClamp10.2 software (Molecular Devices, Sunnyvale, Calif.) 3-5 days after cRNA injection as described in the section above. Oocytes were placed in a small-volume oocyte bath (Warner) and viewed with a dissection microscope. Chemicals were sourced from Sigma. Bath solution was (in mM): 96 NaCl, 4 KCl, 1 MgCl2, 1 CaCl2. 10 HEPES (pH 7.6). […] MTX (DMSO), sorbic acid (ethanol), and glutaconic acid (molecular grade H2O) were stored at −20° C. as 1 M stocks. Oleamide was stored as a 1 mM stock in ethanol at 4° C. Palmitic acid was conjugated with bovine serum albumin as a 1 mM stock and stored at −20° C. All compounds were diluted to working concentrations each experimental day. All compounds were introduced to the recording bath via gravity perfusion at a constant flow of 1 ml/min for 3 min prior to recording. Pipettes were of 1-2 MΩ resistance when filled with 3 M KCl. Currents were recorded in response to pulses between −80 and +40 mV at 20 mV intervals, or a single pulse to +40 mV, from a holding potential of −80 mV, to yield current-voltage relationships, current magnitude, and for quantifying activation rate. TEVC data analysis was performed with Clampfit10.2 (Molecular Devices) and Graphpad Prism software (GraphPad, San Diego, Calif., USA); values are stated as mean±SEM. Normalized tail currents were plotted versus prepulse voltage and fitted with a single Boltzmann function:
(§3) cRNA transcripts encoding human KCNQ2, KCNQ3, KCNQ4, KCNQ5 (Kv7.2-Kv7.5) were generated by in vitro transcription using the T7 polymerase mMessage mMachine kit (Thermo Fisher Scientific), after vector linearization, from cDNA sub-cloned into plasmids incorporating Xenopus laevis β-globin 5′ and 3′ UTRs flanking the coding region to enhance translation and cRNA stability. cRNA was quantified by spectrophotometry. Mutant KCNQ2 and KCNQ3 cDNAs were generated with site-directed mutagenesis using a QuikChange kit according to the manufacturer's protocol (Stratagene, San Diego, Calif.) and corresponding cRNAs prepared as above. Defolliculated stage V and VI Xenopus laevis oocytes (Ecocyte Bioscience, Austin, Tex.) were injected with KCNQ channel α subunit cRNAs (5-10 ng). The oocytes were incubated at 16° C. in Barth's saline solution (Ecocyte) containing penicillin and streptomycin, with daily washing, for 2-5 days prior to two-electrode voltage-clamp (TEVC) recording.
(§4) TEVC recording was performed at room temperature using a OC-725C amplifier (Warner Instruments, Hamden, Conn.) and pClamp8 software (Molecular Devices, Sunnyvale, Calif.) 2-5 days after cRNA injection as described in the section above. The oocytes were placed in a small-volume oocyte bath (Warner) and viewed with a dissection microscope. Unless otherwise stated, chemicals were sourced from Sigma. Bath solution was (in mM): 96 NaCl, 4 KCl, 1 MgCl2, 1 CaCl2, 10 HEPES (pH 7.6).

[5] = target: KCNQ1 (Homo sapiens, UniProt P51787); assay: TEVC of homomeric KCNQ1 expressed in Xenopus oocytes; format: cell-based; conditions: Example 4; read-out: EC50, ΔV0.5act of KCNQ1
Experimental: Oocytes were placed in a small-volume oocyte bath (Warner) and viewed with a dissection microscope. Chemicals were sourced from Sigma. Bath solution was (in mM): 96 NaCl, 4 KCl, 1 MgCl2, 1 CaCl2. 10 HEPES (pH 7.6). […] MTX (DMSO), sorbic acid (ethanol), and glutaconic acid (molecular grade H2O) were stored at −20° C. as 1 M stocks. Oleamide was stored as a 1 mM stock in ethanol at 4° C. Palmitic acid was conjugated with bovine serum albumin as a 1 mM stock and stored at −20° C. All compounds were diluted to working concentrations each experimental day. All compounds were introduced to the recording bath via gravity perfusion at a constant flow of 1 ml/min for 3 min prior to recording. Pipettes were of 1-2 MΩ resistance when filled with 3 M KCl. Currents were recorded in response to pulses between −80 and +40 mV at 20 mV intervals, or a single pulse to +40 mV, from a holding potential of −80 mV, to yield current-voltage relationships, current magnitude, and for quantifying activation rate. […]

[6] = target: KCNQ2 (Homo sapiens, UniProt O43526); assay: TEVC of homomeric KCNQ2 expressed in Xenopus oocytes; format: cell-based; conditions: Example 4; read-out: EC50, ΔV0.5act of KCNQ2
Source text: as §1, §2, §3, §4

[7] = target: KCNQ3* (KCNQ3-A315T) (Homo sapiens, UniProt O43525, A315T); assay: TEVC of homomeric KCNQ3* expressed in Xenopus oocytes; format: cell-based
Source text: as §1, §2, §3, §4

[8] = target: KCNQ5 (Homo sapiens, UniProt Q9NR82); assay: TEVC of homomeric KCNQ5 expressed in Xenopus oocytes; format: cell-based
Source text: as §1, §2, §3, §4

[9] = test system: pentylene tetrazole-induced seizures; assay: PTZ chemoconvulsant assay; format: in vivo, mouse
Source text: We compared anticonvulsant activities of test compounds in male C57BL/6 mice (Charles River) aged 2-3 months. Mice were housed and used according to the recommendations in the Guide for the Care and Use of Laboratory Animals of the National Institutes of Health (NIH Publication, 8th edition, 2011). The study protocol was approved by the Institutional Animal Care and Use Committee of University of California, Irvine, which confirmed that all relevant ethical regulations were adhered to. Chemicals were sourced from Sigma (St. Louis, Mo., USA). A pentylene tetrazole (PTZ) chemoconvulsant assay was used-. […] Following the PTZ injection, mice were caged individually and an observer (GWA) blinded to the drug used recorded, over 20 min, clonic and tonic seizure incidence, and seizure-related mortality.
We quantified the anticonvulsant activities of (E)-2-dodecenal and tridecanal in male C57BL/6 mice (Charles River, Wilmington, Mass.) aged 2-3 months. The mice were housed and used according to the recommendations in the Guide for the Care and Use of Laboratory Animals of the National Institutes of Health (NIH Publication, 8th edition, 2011). The study protocol was approved by the Institutional Animal Care and Use Committee of University of California, Irvine. The chemicals were sourced from Sigma (St. Louis, Mo., USA). We used a pentylene tetrazole (PTZ) chemoconvulsant assay as we previously described (30). We injected the mice intraperitoneally with (E)-2-dodecenal (2 or 20 mgkg^−1) (with or without 2.5 mgkg^−1 XE991) or tridecanal (20 mgkg^−1) solubilized in PBS, or vehicle control (PBS), and then 30 minutes later we injected mice intraperitoneally with 80 mgkg-PTZ. Following the PTZ injection, the mice were caged individually and an observer (GWA) blinded to the experimental condition timed the latency to first seizure.
We compared anticonvulsant activities of 3FMSG in male C57BL/6 mice (Charles River) aged 2-3 months. Mice were housed and used according to the recommendations in the Guide for the Care and Use of Laboratory Animals of the National Institutes of Health (NIH Publication, 8th edition, 2011). The study protocol was approved by the Institutional Animal Care and Use Committee of University of California, Irvine, which confirmed that all relevant ethical regulations were adhered to. Chemicals were sourced from Sigma (St. Louis, Mo., USA). We used a pentylene tetrazole (PTZ) chemoconvulsant assay as we previously described^27. Mice were injected intraperitoneally with 3FMSG (5 mg kg^−1) or vehicle control (PBS) and then 30 minutes later injected intraperitoneally with 80 mg kg^−1 PTZ. Following the PTZ injection, mice were caged individually and an observer (GWA) blinded to the drug used recorded seizure activity over 20 minutes.

Oc1ccccc1S [2-mercaptophenol]
effect on WL/WL KCNQ2/3 (in words) [1]: insensitive
concentration from which KCNQ2/3 is inhibited [2]: ~100 µM
effect of co-applied compound (100 μM) on KCNQ2/3 activation by MTX (30 μM) or IVA (500 μM) [2]: did not alter
effect on KCNQ2/3 activity (in words) [2]: inhibits; also recorded: inhibitory at higher doses
effect on voltage dependence of KCNQ2/3 activation, screen of M. oppositifolius leaf compounds [2]: positive-shifted

CC(C)C[C@H](CN)CC(=O)O [pregabalin]
concentration from which KCNQ2/3 is inhibited [2]: ≥ 10 µM
effect on KCNQ2/3 activity (in words) [2]: does not activate; also recorded: no augmenting effect
effect on KCNQ2/3 gating kinetics [2]: no effects
shift of membrane potential (EM) of KCNQ2/3-expressing oocytes ([2]; unclamped oocytes): failed to shift

O=C(Nc1ccc(Cl)nc1)c1ccc(F)c(F)c1 [ICA-27243]
potency at opening KCNQ2/3 versus KCNQ4 [3]: > 20 fold

NCC(O)CC(=O)O (stereo not drawn) [GABOB, γ-Amino-β-hydroxybutyric acid]
effect of co-applied compound (100 μM) on KCNQ2/3 activation by MTX (30 μM) or IVA (500 μM) [2]: only partially diminishes; also recorded: highly effective at competing out

NCCCC(=O)O [GABA, γ-aminobutyric acid, reference compound]
effect on KCNQ4 (in words) [4]: unable to open

O=C(Nc1cnc(Cl)nc1)c1ccc(F)c(F)c1 [ICA-069673]
selectivity KCNQ2/3 versus KCNQ3/5 activation [3]: 20 fold

CCCCCCCCCCCCCCCC(=O)O [palmitic acid]
effect on voltage dependence of KCNQ2/3 activation, screen of M. oppositifolius leaf compounds [2]: negative-shifted

NC(C(=O)O)c1ccc(F)cc1 (stereo not drawn) [4FPG, 4-(fluorophenyl)glycine]
EC50 [5]: 90 ± 20 nM
EC50 [6]: 69 ± 31 nM
EC50 ([4]; Example 4, read-out: EC50, ΔV0.5act of KCNQ4): 49 ± 12 nM
effect on KCNQ3* (in words) [7]: no effects
effect on KCNQ5 (in words) [8]: no effects
EC50 ([2]; Example 4, read-out: EC50, shift in voltage dependence of KCNQ2/3 activation (ΔV0.5act)): 61 ± 42 nM

CCCCC(=O)O [valeric acid]
KCNQ2/3 activation (previously found) [3]: inactive

O=C1c2ccccc2C(Cc2ccncc2)(Cc2ccncc2)c2ccccc21 [XE991]
latency to first PTZ-induced seizure ([9]; XE991 2.5 mgkg−1 with (E)-2-dodecenal 20 mgkg−1): eliminated the protective effect
inhibition of activator-augmented KCNQ2/3 current ([2]; after wash-in of MTX or gabapentin): rapidly inhibited; also recorded: completely inhibited

O=C(O)C=CCC(=O)O [glutaconic acid]
effect on voltage dependence of KCNQ2/3 activation, screen of M. oppositifolius leaf compounds [2]: negative-shifted

CCCCCCCC/C=C\CCCCCCCC(N)=O [oleamide]
effect on KCNQ2/3 activity (in words) [2]: slightly increased KCNQ2/3 currents at higher voltages

CCCCCCCCCCCCC=O [tridecanal, reference compound]
latency to first PTZ-induced seizure ([9]; 20 mgkg−1 i.p.): no effect
effect on KCNQ2/3 activity (in words) [2]: KCNQ2/3-inactive
